Measurements: ChEMBL document CHEMBL5104141, “Discovery and antiviral profile of new sulfamoylbenzamide derivatives as HBV capsid assembly modulators” (Bioorg Med Chem Lett, 2022)
Values after ≈ are worked out from the molar mass of the structure shown.

Columns and labels:
[1] = target: Cytochrome P450 2D6 (Homo sapiens, UniProt P10635); assay: Inhibition of CYP2D6 (unknown origin); type: ADME
[2] = Cytotoxicity against human HePAD38 cells up to 10 uM by CellTiter-Blue assay; type: toxicity, cell-based; details: hepad38, 10 µM
[3] = Ratio of EC50 for antiviral activity against HBV harboring core protein T128I mutant to EC50 for antiviral activity against HBV harboring wild type core protein; type: functional, Hepatitis B virus
[4] = system: Hepatitis B virus; assay: Antiviral activity against HBV in HBV transgenic mouse assessed as inhibition of viral replication by measuring log reduction of serum HBV DNA content at 25 mg/kg, po BID for 3 days; type: functional; details: time 3 day
[5] = Ratio of EC50 for antiviral activity against HBV harboring core protein T33N mutant to EC50 for antiviral activity against HBV harboring wild type core protein; type: functional, Hepatitis B virus
[6] = Mutagenicity in Salmonella typhimurium upto 1250 ug/plate in presence of S9 fraction by Ames test; type: toxicity, subcellular; details: salmonella enterica subsp. enterica serovar typhimurium, dose < 1250 µg
[7] = system: Hepatitis B virus; assay: Antiviral activity against HBV in HBV transgenic mouse assessed as inhibition of viral replication by measuring reduction of serum HBV DNA content administered orally BID for 3 days; type: functional, organism-based; details: dose 25-75 mg/kg, route po, time 3.0 day, DDE = dose-dependent effect
[8] = Mutagenicity in Escherichia coli upto 1250 ug/plate in presence of S9 fraction by Ames test; type: toxicity, subcellular; details: dose < 1250 µg
[9] = Plasma clearance in C57BL/6 mouse at 2 mg/kg, iv; type: ADME, organism-based
[10] = Cmax in C57BL/6 mouse at 5 mg/kg, po; type: ADME, organism-based; design: dose 5 mg/kg, route po; details: in vivo
[11] = Ratio of EC50 for antiviral activity against HBV harboring core protein I105T mutant to EC50 for antiviral activity against HBV harboring wild type core protein; type: functional, Hepatitis B virus
[12] = target: Core antigen (Hepatitis B virus) (UniProt Q03732); assay: Modulation of capsid assembly in HBV infected in human HePAD38 cells assessed as fold shift in inhibition of viral DNA replication in presence of 40% normal human serum measured after 96 hrs by qPCR analysis; type: cell-based; details: filed as modulator
[13] = target: Cytochrome P450 3A4 (Homo sapiens, UniProt P08684); assay: Inhibition of CYP3A4 (unknown origin); type: ADME
[14] = target: T1, Cytochrome P450 1A2 (Homo sapiens, UniProt P05177); assay: Inhibition of CYP1A2 (unknown origin); type: ADME
T1 sequence (P05177 whole entry): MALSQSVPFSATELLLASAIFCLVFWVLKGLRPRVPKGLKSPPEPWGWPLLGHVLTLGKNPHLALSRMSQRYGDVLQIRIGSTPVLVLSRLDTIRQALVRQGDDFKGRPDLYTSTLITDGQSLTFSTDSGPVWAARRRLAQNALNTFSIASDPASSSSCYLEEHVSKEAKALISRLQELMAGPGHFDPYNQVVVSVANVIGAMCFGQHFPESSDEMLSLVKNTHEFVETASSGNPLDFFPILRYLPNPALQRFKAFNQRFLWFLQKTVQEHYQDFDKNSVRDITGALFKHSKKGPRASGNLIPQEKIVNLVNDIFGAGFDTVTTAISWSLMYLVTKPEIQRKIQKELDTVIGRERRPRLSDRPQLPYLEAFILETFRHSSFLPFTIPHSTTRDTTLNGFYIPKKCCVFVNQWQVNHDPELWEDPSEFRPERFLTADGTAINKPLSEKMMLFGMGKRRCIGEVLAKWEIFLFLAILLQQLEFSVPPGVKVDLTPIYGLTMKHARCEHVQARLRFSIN

[15] = target: Core antigen (Hepatitis B virus) (UniProt Q03732); assay: Modulation of capsid assembly in HBV infected in human HePAD38 cells assessed as inhibition of viral DNA replication measured after 96 hrs by qPCR analysis; type: cell-based; details: filed as modulator
[16] = Ratio of EC50 for antiviral activity against HBV harboring core protein F110I mutant to EC50 for antiviral activity against HBV harboring wild type core protein; type: functional, Hepatitis B virus
[17] = Mutagenicity in Salmonella typhimurium upto 1250 ug/plate in absence of S9 fraction by Ames test; type: toxicity; details: salmonella enterica subsp. enterica serovar typhimurium, dose < 1250 µg
[18] = Ratio of drug concentration in liver to blood in C57BL/6 mouse at 5 mg/kg, po measured after 4 hrs; type: ADME, organism-based
[19] = target: Voltage-gated inwardly rectifying potassium channel KCNH2 (Homo sapiens, UniProt Q12809); assay: Inhibition of hERG; type: toxicity
[20] = Ratio of EC50 for antiviral activity against HBV harboring core protein F23Y mutant to EC50 for antiviral activity against HBV harboring wild type core protein; type: functional, Hepatitis B virus
[21] = Ratio of EC50 for antiviral activity against HBV harboring core protein V124G mutant to EC50 for antiviral activity against HBV harboring wild type core protein; type: functional, Hepatitis B virus
[22] = AUC in C57BL/6 mouse at 5 mg/kg, po and 2 mg/kg, iv; type: ADME, organism-based; design: dose 5 mg/kg, route po; details: in vivo
[23] = system: Hepatitis B virus; assay: Antiviral activity against HBV in HBV transgenic mouse assessed as inhibition of viral replication by measuring fold reduction of serum HBV DNA content at 25 mg/kg, po BID for 3 days relative to control; type: functional; details: time 3 day
[24] = system: Hepatitis B virus; assay: Antiviral activity against HBV in HBV transgenic mouse assessed as inhibition of viral replication by measuring log reduction of serum HBV DNA content at 75 mg/kg, po BID for 3 days; type: functional; details: time 3 day
[25] = Oral bioavailability in C57BL/6 mouse at 5 mg/kg; type: ADME, organism-based; details: in vivo
[26] = Ratio of EC50 for antiviral activity against HBV harboring core protein Y118F mutant to EC50 for antiviral activity against HBV harboring wild type core protein; type: functional, Hepatitis B virus
[27] = system: Hepatitis B virus; assay: Antiviral activity against HBV in HBV transgenic mouse assessed as inhibition of viral replication by measuring reduction of serum HBV DNA content at 25 to 75 mg/kg, po BID for 3 days; type: functional, organism-based; details: dose 25-75 mg/kg, time 3.0 day, TDE = time-dependent effect
[28] = Volume of distribution in C57BL/6 mouse at 2 mg/kg, iv; type: ADME, organism-based; details: in vivo
[29] = Mutagenicity in Escherichia coli upto 1250 ug/plate in absence of S9 fraction by Ames test; type: toxicity; details: dose < 1250 µg
[30] = Ratio of EC50 for antiviral activity against HBV harboring core protein T33P mutant to EC50 for antiviral activity against HBV harboring wild type core protein; type: functional, Hepatitis B virus
[31] = Kinetic solubility of the compound at pH 7.4; type: physicochemical; details: buffer, read-out: Kinetic_solubility
[32] = Toxicity in HBV transgenic mouse assessed as liver damage at 25 to 75 mg/kg, po BID for 3 days; type: organism-based; details: in vivo, 72 h, dose 25-75 mg/kg, time 3 day
[33] = system: HepG2 2.2.15; assay: Cytotoxicity against human HepG2.2.15 cells up to 10 uM by CellTiter-Blue assay; type: toxicity, cell-based; details: hepg2 2.2.15, 10 µM
[34] = system: Hepatitis B virus; assay: Antiviral activity against HBV in HBV transgenic mouse assessed as inhibition of viral replication by measuring fold reduction of serum HBV DNA content at 75 mg/kg, po BID for 3 days relative to control; type: functional; details: time 3 day
[35] = Metabolic stability of the compound in human hepatocytes assessed as parent compound remaining measured after 4 hrs; type: ADME, cell-based, Hepatocyte; details: read-out: Stability
[36] = Ratio of EC50 for antiviral activity against HBV harboring core protein L37Q mutant to EC50 for antiviral activity against HBV harboring wild type core protein; type: functional, Hepatitis B virus
[37] = Metabolic stability of the compound in mouse hepatocytes assessed as parent compound remaining measured after 4 hrs; type: ADME, cell-based, Hepatocyte; details: read-out: Stability
[38] = Half life in C57BL/6 mouse at 2 mg/kg, iv; type: ADME, organism-based; details: in vivo

Chain of Core antigen (Hepatitis B virus) (Q03732 as listed by the source): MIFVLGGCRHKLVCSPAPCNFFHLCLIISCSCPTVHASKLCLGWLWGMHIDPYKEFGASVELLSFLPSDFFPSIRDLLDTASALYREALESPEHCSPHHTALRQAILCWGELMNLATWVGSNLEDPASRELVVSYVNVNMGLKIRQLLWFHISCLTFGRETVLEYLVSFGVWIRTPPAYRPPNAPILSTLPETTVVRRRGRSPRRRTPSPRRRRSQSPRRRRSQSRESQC
Chain of Cytochrome P450 3A4 (P08684 whole entry): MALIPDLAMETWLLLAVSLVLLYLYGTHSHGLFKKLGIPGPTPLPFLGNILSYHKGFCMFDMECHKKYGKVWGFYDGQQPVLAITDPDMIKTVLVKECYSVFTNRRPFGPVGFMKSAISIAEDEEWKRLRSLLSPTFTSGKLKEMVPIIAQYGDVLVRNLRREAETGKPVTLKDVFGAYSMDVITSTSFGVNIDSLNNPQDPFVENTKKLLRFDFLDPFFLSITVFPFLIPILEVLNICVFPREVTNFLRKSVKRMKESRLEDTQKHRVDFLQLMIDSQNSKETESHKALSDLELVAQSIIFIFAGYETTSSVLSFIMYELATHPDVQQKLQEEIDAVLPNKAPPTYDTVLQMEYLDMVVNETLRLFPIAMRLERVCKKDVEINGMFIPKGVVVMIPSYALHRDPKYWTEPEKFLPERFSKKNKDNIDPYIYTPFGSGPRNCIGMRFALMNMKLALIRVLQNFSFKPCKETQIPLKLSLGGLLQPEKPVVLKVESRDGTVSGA
Chain of Voltage-gated inwardly rectifying potassium channel KCNH2 (Q12809 whole entry): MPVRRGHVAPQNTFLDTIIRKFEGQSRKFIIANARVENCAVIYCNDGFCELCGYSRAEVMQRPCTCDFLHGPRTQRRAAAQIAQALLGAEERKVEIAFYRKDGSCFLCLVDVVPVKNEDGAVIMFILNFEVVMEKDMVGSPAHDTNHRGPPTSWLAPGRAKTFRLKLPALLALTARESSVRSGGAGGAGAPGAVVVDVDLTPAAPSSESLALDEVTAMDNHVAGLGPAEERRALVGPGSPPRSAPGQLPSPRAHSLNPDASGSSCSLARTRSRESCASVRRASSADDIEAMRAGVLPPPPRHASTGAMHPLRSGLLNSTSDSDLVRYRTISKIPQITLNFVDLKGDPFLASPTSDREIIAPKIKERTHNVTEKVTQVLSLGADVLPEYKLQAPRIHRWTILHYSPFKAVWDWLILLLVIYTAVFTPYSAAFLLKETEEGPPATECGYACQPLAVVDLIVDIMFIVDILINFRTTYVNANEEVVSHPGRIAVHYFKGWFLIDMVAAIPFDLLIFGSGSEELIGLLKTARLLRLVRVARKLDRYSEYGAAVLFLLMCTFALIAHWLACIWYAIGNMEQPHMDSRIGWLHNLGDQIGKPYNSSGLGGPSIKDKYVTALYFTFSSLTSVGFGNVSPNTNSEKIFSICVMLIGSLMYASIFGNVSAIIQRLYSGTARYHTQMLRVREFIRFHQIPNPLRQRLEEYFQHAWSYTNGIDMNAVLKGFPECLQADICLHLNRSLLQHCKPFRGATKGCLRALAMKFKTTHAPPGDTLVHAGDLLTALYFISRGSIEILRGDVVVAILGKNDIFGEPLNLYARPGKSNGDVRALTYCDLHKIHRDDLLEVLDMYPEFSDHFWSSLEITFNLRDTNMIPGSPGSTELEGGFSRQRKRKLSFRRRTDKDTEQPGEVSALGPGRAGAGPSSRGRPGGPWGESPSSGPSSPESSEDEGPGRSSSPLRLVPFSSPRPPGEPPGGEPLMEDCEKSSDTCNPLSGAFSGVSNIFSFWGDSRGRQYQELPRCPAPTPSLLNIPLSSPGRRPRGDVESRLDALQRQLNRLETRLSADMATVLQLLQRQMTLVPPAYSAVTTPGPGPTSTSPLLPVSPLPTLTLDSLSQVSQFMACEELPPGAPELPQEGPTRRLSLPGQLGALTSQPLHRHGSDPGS
Chain of Cytochrome P450 2D6 (P10635 whole entry): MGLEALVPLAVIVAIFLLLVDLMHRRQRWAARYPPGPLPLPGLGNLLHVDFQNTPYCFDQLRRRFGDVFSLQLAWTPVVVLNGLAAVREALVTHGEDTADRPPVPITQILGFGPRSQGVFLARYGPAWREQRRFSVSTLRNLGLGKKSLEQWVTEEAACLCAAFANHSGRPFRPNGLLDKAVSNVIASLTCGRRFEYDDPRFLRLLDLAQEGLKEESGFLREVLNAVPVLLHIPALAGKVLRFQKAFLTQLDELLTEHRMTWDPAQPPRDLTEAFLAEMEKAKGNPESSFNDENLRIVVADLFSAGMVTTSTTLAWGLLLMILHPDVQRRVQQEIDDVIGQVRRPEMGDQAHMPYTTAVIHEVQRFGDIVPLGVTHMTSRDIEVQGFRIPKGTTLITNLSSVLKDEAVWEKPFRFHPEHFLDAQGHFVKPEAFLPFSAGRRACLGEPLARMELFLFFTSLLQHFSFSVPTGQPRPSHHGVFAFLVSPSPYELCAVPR

SMILES: Cc1cc(N)c(S(N)(=O)=O)cc1C(=O)Nc1cc(F)c(F)c(F)c1
- IC50 [1]: > 15000 nM
- Activity [2]: Non-Toxic
- Ratio EC50 [3]: 3.1
- log(activity) [4]: 1.18
- Ratio EC50 [5]: 3.1
- Activity [6]: Non-Toxic
- Activity [7]: Dde
- Activity [8]: Non-Toxic
- clearance [9]: 8 mL/min/kg
- Cmax [10]: 3.6 µM
- Ratio EC50 [11]: 3.1
- fold change (FC) [12]: 16.9
- IC50 [13]: > 30000 nM
- IC50 [14]: 12400 nM
- EC90 [15]: 260 nM
- Ratio EC50 [16]: 3.1
- Activity [17]: Non-Toxic
- Kp at 4 h [18]: 10
- IC50 [19]: > 30000 nM
- Ratio EC50 [20]: 3.1
- Ratio EC50 [21]: 3.1
- AUC [22]: 33 µM·h
- fold change (FC) [23]: 15.2
- log(activity) [24]: 1.68
- bioavailability [25]: 114%
- Ratio EC50 [26]: 3.1
- Activity [27]: Tde
- Vd [28]: 2.3 L/kg
- Activity [29]: Non-Toxic
- Ratio EC50 [30]: 3.1
- solubility kinetic [31]: 29.2 µM (≈ 10.5 µg/mL)
- Activity [32]: Non-Toxic
- Activity [33]: Non-Toxic
- fold change (FC) [34]: 48.3
- remaining at 4 h [35]: 90%
- Ratio EC50 [36]: 3.1
- remaining at 4 h [37]: 100%
- half-life [38]: 3.2 h

SMILES: Nc1cc(Cl)c(C(=O)Nc2cc(F)c(F)c(F)c2)cc1S(N)(=O)=O
- EC90 [15]: 1240 nM

SMILES: Nc1ccc(C(=O)Nc2ccc(F)c(C(F)(F)F)c2)cc1S(N)(=O)=O
- EC90 [15]: 3650 nM

SMILES: Cc1cc(NC(=O)c2cc(S(N)(=O)=O)c(N)cc2C)ccc1F
- EC90 [15]: 390 nM

SMILES: Nc1ccc(C(=O)Nc2ccc(F)c(C(F)F)c2)cc1S(N)(=O)=O
- EC90 [15]: 480 nM

SMILES: NS(=O)(=O)c1cc(C(=O)Nc2cc(F)c(F)c(F)c2)ccc1F
- EC90 [15]: 8130 nM

SMILES: Nc1ccc(C(=O)Nc2ccc(F)c(Cl)c2)cc1S(N)(=O)=O
- EC90 [15]: 360 nM

SMILES: Cc1cc(N)c(S(N)(=O)=O)cc1C(=O)Nc1ccc(F)c(C(F)(F)F)c1
- EC90 [15]: 2630 nM

SMILES: Nc1cc(Br)c(C(=O)Nc2cc(F)c(F)c(F)c2)cc1S(N)(=O)=O
- EC90 [15]: 2780 nM

SMILES: CNc1ccc(C(=O)Nc2cc(F)c(F)c(F)c2)cc1S(N)(=O)=O
- EC90 [15]: 20800 nM

SMILES: Nc1cc(F)c(C(=O)Nc2cc(F)c(F)c(F)c2)cc1S(N)(=O)=O
- EC90 [15]: 1090 nM

SMILES: O=C(Nc1cc(F)c(F)c(F)c1)c1ccc(F)c(S(=O)(=O)N2CCC(O)CC2)c1
- EC90 [15]: 1130 nM

SMILES: Nc1ccc(C(=O)Nc2cc(F)c(F)c(F)c2)cc1S(N)(=O)=O
- EC90 [15]: 490 nM

SMILES: Cc1cc(NC(=O)c2ccc(N)c(S(N)(=O)=O)c2)ccc1F
- EC90 [15]: 700 nM

SMILES: Cc1cc(N)c(S(N)(=O)=O)cc1C(=O)Nc1ccc(F)c(C(F)F)c1
- EC90 [15]: 660 nM

SMILES: Cc1cc(N)c(S(N)(=O)=O)cc1C(=O)Nc1ccc(F)c(C#N)c1
- EC90 [15]: 1210 nM

SMILES: Cc1cc(C(=O)Nc2cc(F)c(F)c(F)c2)cc(S(N)(=O)=O)c1N
- EC90 [15]: 1540 nM

SMILES: N#Cc1cc(NC(=O)c2ccc(N)c(S(N)(=O)=O)c2)ccc1F
- EC90 [15]: 2530 nM

SMILES: Cc1cc(N)c(S(N)(=O)=O)cc1C(=O)Nc1ccc(F)c(Cl)c1
- EC90 [15]: 390 nM
